According to the NIST ThermoML archive (doi:10.1021/acs.jced.8b00229):

Details: Liquid, Vibrating tube method

C=CCCCC [hex-1-ene]
Details	mass density [kg/m3]
283.57 K, 1000 kPa	683.2
283.57 K, 3000 kPa	685.2
283.57 K, 5000 kPa	687.2
283.57 K, 10000 kPa	691.9
283.57 K, 15000 kPa	696.4
283.57 K, 20000 kPa	700.6
283.57 K, 25000 kPa	704.7
283.57 K, 30000 kPa	708.5
283.57 K, 35000 kPa	712.4
283.57 K, 45000 kPa	719.4
283.58 K, 500 kPa	682.3
283.58 K, 40000 kPa	714.7
283.58 K, 50000 kPa	722.4
283.58 K, 55000 kPa	725.5
283.58 K, 60000 kPa	728.6
283.58 K, 70000 kPa	734.4
283.58 K, 80000 kPa	739.9
283.59 K, 100 kPa	682.2
283.59 K, 90000 kPa	745.2
283.59 K, 100000 kPa	750.1
293.5 K, 1000 kPa	674.1
293.51 K, 100 kPa	673.1
293.51 K, 500 kPa	673.5
293.51 K, 3000 kPa	676.3
293.51 K, 5000 kPa	678.4
293.51 K, 10000 kPa	683.5
293.51 K, 20000 kPa	692.8
293.51 K, 25000 kPa	697
293.51 K, 30000 kPa	701.1
293.51 K, 35000 kPa	704.9
293.51 K, 55000 kPa	718.9
293.51 K, 60000 kPa	722.1
293.51 K, 70000 kPa	728.2
293.51 K, 80000 kPa	733.8
293.51 K, 90000 kPa	739.3
293.51 K, 100000 kPa	744.4
293.52 K, 15000 kPa	688.3
293.52 K, 40000 kPa	708.6
293.52 K, 45000 kPa	712.5
293.52 K, 50000 kPa	715.6
303.4 K, 500 kPa	664.1
303.4 K, 1000 kPa	664.6
303.41 K, 100 kPa	663.5
303.41 K, 3000 kPa	667
303.41 K, 5000 kPa	669.3
303.41 K, 10000 kPa	674.8
303.41 K, 15000 kPa	679.9
303.41 K, 20000 kPa	684.7
303.41 K, 25000 kPa	689.2
303.42 K, 30000 kPa	693.5
303.42 K, 35000 kPa	698.2
303.42 K, 40000 kPa	701.5
303.42 K, 45000 kPa	705.8
303.42 K, 50000 kPa	708.8
303.42 K, 55000 kPa	712.8
303.42 K, 60000 kPa	715.5
303.42 K, 70000 kPa	721.8
303.42 K, 80000 kPa	727.7
303.42 K, 90000 kPa	733.2
303.42 K, 100000 kPa	738.5
313.34 K, 100 kPa	654.1
313.34 K, 20000 kPa	676.6
313.35 K, 500 kPa	654.2
313.35 K, 1000 kPa	655.3
313.35 K, 3000 kPa	657.9
313.35 K, 5000 kPa	660.3
313.35 K, 10000 kPa	666.1
313.35 K, 15000 kPa	671.6
313.35 K, 25000 kPa	681.4
313.35 K, 30000 kPa	685.9
313.35 K, 35000 kPa	690.2
313.35 K, 40000 kPa	694.3
313.35 K, 45000 kPa	698.3
313.35 K, 50000 kPa	701.9
313.35 K, 55000 kPa	705.7
313.35 K, 60000 kPa	709
313.35 K, 80000 kPa	721.9
313.35 K, 90000 kPa	727.6
313.35 K, 100000 kPa	733.2
313.36 K, 70000 kPa	715.9
323.18 K, 100 kPa	644.5
323.18 K, 60000 kPa	702.5
323.19 K, 500 kPa	644.9
323.19 K, 1000 kPa	645.8
323.19 K, 3000 kPa	648.6
323.19 K, 5000 kPa	651.3
323.19 K, 10000 kPa	657.6
323.19 K, 50000 kPa	695.2
323.19 K, 55000 kPa	699.3
323.2 K, 15000 kPa	663.4
323.2 K, 20000 kPa	668.8
323.2 K, 30000 kPa	678.6
323.2 K, 35000 kPa	683.4
323.2 K, 40000 kPa	687.3
323.2 K, 70000 kPa	709.4
323.2 K, 80000 kPa	715.7
323.2 K, 90000 kPa	721.6
323.2 K, 100000 kPa	727.2
323.21 K, 25000 kPa	673.8
323.21 K, 45000 kPa	691.8
333.08 K, 500 kPa	635.3
333.08 K, 1000 kPa	636
333.08 K, 3000 kPa	639.1
333.08 K, 5000 kPa	642
333.08 K, 10000 kPa	648.8
333.09 K, 15000 kPa	655
333.09 K, 20000 kPa	660.8
333.09 K, 25000 kPa	666.1
333.09 K, 30000 kPa	671.1
333.09 K, 35000 kPa	676.4
333.09 K, 40000 kPa	680.2
333.09 K, 45000 kPa	685.1
333.09 K, 50000 kPa	688.5
333.09 K, 55000 kPa	693
333.09 K, 60000 kPa	696.1
333.09 K, 70000 kPa	703.3
333.09 K, 80000 kPa	709.8
333.09 K, 90000 kPa	715.9
333.09 K, 100000 kPa	721.7
342.96 K, 500 kPa	625.6
342.96 K, 1000 kPa	626.4
342.97 K, 3000 kPa	629.8
342.97 K, 5000 kPa	633
342.97 K, 10000 kPa	640.3
342.97 K, 15000 kPa	647
342.97 K, 20000 kPa	653.2
342.97 K, 25000 kPa	658.8
342.97 K, 30000 kPa	664.1
342.97 K, 35000 kPa	669.6
342.97 K, 40000 kPa	673.8
342.97 K, 45000 kPa	678.8
342.97 K, 50000 kPa	682.3
342.97 K, 55000 kPa	687
342.97 K, 60000 kPa	690.4
342.97 K, 70000 kPa	697.6
342.97 K, 80000 kPa	704.3
342.97 K, 90000 kPa	710.7
342.97 K, 100000 kPa	716.6
352.85 K, 500 kPa	615.7
352.85 K, 1000 kPa	617
352.85 K, 3000 kPa	620.7
352.85 K, 5000 kPa	624.2
352.85 K, 15000 kPa	639.4
352.86 K, 10000 kPa	632.2
352.86 K, 20000 kPa	645.7
352.86 K, 25000 kPa	651.7
352.86 K, 30000 kPa	657.4
352.86 K, 35000 kPa	662.8
352.86 K, 40000 kPa	667.4
352.86 K, 45000 kPa	672.4
352.86 K, 50000 kPa	676.6
352.86 K, 55000 kPa	680.9
352.86 K, 60000 kPa	684.8
352.86 K, 70000 kPa	692.4
352.86 K, 80000 kPa	699.4
352.86 K, 90000 kPa	705.9
352.86 K, 100000 kPa	712
362.7 K, 500 kPa	604.1
362.7 K, 1000 kPa	605.5
362.7 K, 100000 kPa	705.7
362.71 K, 3000 kPa	609.5
362.71 K, 5000 kPa	613.3
362.71 K, 10000 kPa	622
362.71 K, 15000 kPa	629.7
362.71 K, 20000 kPa	636.7
362.71 K, 25000 kPa	643
362.71 K, 30000 kPa	648.9
362.71 K, 35000 kPa	654.7
362.71 K, 40000 kPa	659.6
362.71 K, 45000 kPa	664.8
362.71 K, 50000 kPa	669
362.71 K, 55000 kPa	673.7
362.71 K, 60000 kPa	677.6
362.71 K, 70000 kPa	685.4
362.71 K, 80000 kPa	692.6
362.71 K, 90000 kPa	699.3
